Measured values as given in patent publication US9783518B2, “Therapeutic agent and treatment method for ameliorating uremia” (Toray Industries, Inc., priority 2005, dated 2017).
“Also recorded” adds a separate entry of the source.

What was measured:
[1] = tested on: cats with chronic renal failure; test: Clinical score of uremic symptoms (activity + appetite) in cats with chronic renal failure; assay type: in vivo, cat; details: Case-G; 40 μg/head/BID; Day 14, kept up to Day 56; 3 points before
[2] = tested on: cats with chronic renal failure; test: as above; assay type: in vivo, cat; details: for clinical total score (full points 5): after one month
Description: Testing methods for the patients showing uremia caused by chronic renal failure, employed in Example 4 or later, will now be described. The criteria and evaluation items for the cats and dogs with chronic renal failure are as follows: Diagnosis of uremia and chronic renal failure were performed totally taking clinical findings (including findings of uremia) and the results of the blood test, blood biochemical analysis and urinalysis into consideration. As the clinical findings of uremia, existence and degree of polydipsia and diuresis, dehydration, anorexia, weight loss, vomiting symptom and state of dehydration were observed. Existence of chronic renal failure was judged based on the serum Cre value as generally employed. As reference data for grasping the degree of progress of chronic renal failure, BUN value was also monitored.
This pilot clinical test was performed after obtaining informed consent of the owners of the cats (clients) before the start of the test, wherein the clients received explanations about the fact that beraprost sodium had already been approved as a drug for human chronic artery obstruction and had already been marketed, and about the safety thereof. Further, giving first priority to the benefit of the patients and clients, conventional therapeutic methods were also combined appropriately for the individuals with progressed renal failure. Examples of the concomitant drugs employed include synthetic active carbons such as Covalzin, Kremezin and Nefguard; calcium preparations such as calcium carbonate; formula meals such as k/d and low-protein diets; and infusion solutions. However, in cases where there was a rational reason and consent by the owner was obtained, beraprost sodium alone was administered even to the individual with progressed renal failure. On the other hand, drugs thought to influence on the action of beraprost sodium, such as vasodilators (e.g., enalapril), diuretic (e.g., furosemide), drugs which influence on renal blood flow (e.g., dopamine) and steroids (e.g., prednisolone) were not used.
Administration of beraprost sodium was conducted by orally administering the tablet with a content of 150 μg/tablet (Example 1) twice a day (300 μg/head/day). The administration was conducted every day and continued basically for 6 months, and in cases where the owner desired, the administration was continued even after the test period. The Examples of the present invention include both cases where the dosing period was less than 6 months and more than 6 months.
Evaluation of degree of improvement of the uremic symptoms was carried out as follows: From the clinical symptoms related to uremia, activity and appetite, which are unlikely to be overlooked and which can be observed universally from before to after the test period, were selected. […] The evaluation was carried out based on the total points (full points were 5 points). Thus, a higher point indicates more improvements in the clinical symptoms.

[3] = tested on: cats with renal failure; test: Body weight of cats with renal failure during administration; assay type: in vivo, cat
Description: […] The administration was conducted every day and continued basically for 6 months, and in cases where the owner desired, the administration was continued even after the test period. The Examples of the present invention include both cases where the dosing period was less than 6 months and more than 6 months.

[4] = tested on: immune complex-induced glomerulonephritis mouse NZB/WF1; details: administered before onset; cited from earlier work

CC#CC[C@@H](C)[C@H](O)/C=C/[C@@H]1[C@H]2c3cccc(CCCC(=O)[O-])c3O[C@H]2C[C@H]1O.[Na+] (mixture of isomers) [beraprost sodium, Sodium rac-(1R,2R,3aS,8bS)-2,3,3a,8b-tetrahydro-2-hydroxy-1-[(E)-(3S,4RS)-3-hydroxy-4-methyloct-1-en-6-ynyl]-1H-cyclopenta[b][1]benzofuran-5-butanoate]
clinical score (full points 5) [1]: 5 points
clinical score (full points 5) ([2]; Case-A, male cat 5 y, 150 μg tablet oral BID alone, first month): 4
clinical score (full points 5) ([2]; Case-A, 150 μg oral BID alone, second month, maintained for 6 months): 5
clinical conditions / uremic symptoms at follow up ([2]; Case-A, 6 months after termination (12 months after start)): not observed at all; also recorded: very good
outcome of uremia and renal failure ([2]; Case-A, 6 months of 150 μg oral BID alone): completely cured
differences from normal cats in clinical observations and biochemical markers ([2]; Case-A, end of the 6-month dosing period): no differences
total score of the clinical symptoms (full points 5) ([2]; Case-B, male cat 4 y, 150 μg oral BID alone, 1 month after start, 3 points before): 5 points
clinical symptoms ([2]; Case-B, first to second month): slight amelioration
clinical score (full points 5) ([2]; Case-B, from the fourth month): 5 points
clinical score (full points 5) ([2]; Case-C, female cat 16 y, 150 μg oral BID alone, second week, 2 points before): 4 points
clinical score (full points 5) ([2]; Case-C, after 2.5 months): 5 points
clinical score (full points 5) ([2]; Case-C, after the sixth week): 4 points
clinical score (full points 5) ([2]; Case-C, sixth week): 2 points
clinical total score (full points 5) ([2]; Case-D, male Siamese cat 17 y, 150 μg oral BID alone, 2 points before): 5 points
clinical total score (full points 5) ([2]; Case-E, 150 μg oral BID plus Covalzin 200 mg/BID, calcium preparation, formula meal, infusion, 0 point before): 4 points
dehydration ([2]; Case-E, combination therapy, first about 3 months): completely disappeared
clinical score (full points 5) ([2]; Case-E, combination therapy, for about 3 months): 5 points
clinical score (full points 5) ([2]; Case-E, combination without Covalzin from fourth month, for about 2 months): 3 points
clinical score (full points 5) ([2]; Case-E, combination without Covalzin, 7th to 8th month): 5 points
clinical score (full points 5) ([2]; Case-F, 150 μg oral BID added to insulin, active carbon, calcium carbonate, first month, continues 10 months): 5 points
uremic symptoms ([2]; Case-F, combination therapy, after start of beraprost sodium): disappeared; also recorded: quickly improved
appetite and desire for water ([2]; cats with renal failure, overall): clearly improved
Changes in Body Weight during Administration of Beraprost Sodium ([3]; Case-A, age 5, month 0): 5.2 kg
Changes in Body Weight during Administration of Beraprost Sodium ([3]; Case-A, month 1): 5.5 kg
Changes in Body Weight during Administration of Beraprost Sodium ([3]; Case-A, month 2): 5.5 kg
Changes in Body Weight during Administration of Beraprost Sodium ([3]; Case-A, month 3): 5.5 kg
Changes in Body Weight during Administration of Beraprost Sodium ([3]; Case-A, month 4): 5.7 kg
Changes in Body Weight during Administration of Beraprost Sodium ([3]; Case-A, month 5): 5.7 kg
Changes in Body Weight during Administration of Beraprost Sodium ([3]; Case-A, month 6): 6.0 kg
Changes in Body Weight during Administration of Beraprost Sodium ([3]; Case-B, age 4, month 0): 3.5 kg
Changes in Body Weight during Administration of Beraprost Sodium ([3]; Case-B, month 1): 3.6 kg
Changes in Body Weight during Administration of Beraprost Sodium ([3]; Case-B, month 2): 3.6 kg
Changes in Body Weight during Administration of Beraprost Sodium ([3]; Case-B, month 3): 3.7 kg
Changes in Body Weight during Administration of Beraprost Sodium ([3]; Case-B, month 4): 3.9 kg
Changes in Body Weight during Administration of Beraprost Sodium ([3]; Case-B, month 5): 4.0 kg
Changes in Body Weight during Administration of Beraprost Sodium ([3]; Case-B, month 6): 4.0 kg
body weight ([3]; Case-B, with amelioration of uremic symptoms): increased
Changes in Body Weight during Administration of Beraprost Sodium ([3]; Case-C, age 16, month −1 (before administration)): 2.8 kg
Changes in Body Weight during Administration of Beraprost Sodium ([3]; Case-C, month 0): 2.7 kg
Changes in Body Weight during Administration of Beraprost Sodium ([3]; Case-C, month 1): 2.8 kg
Changes in Body Weight during Administration of Beraprost Sodium ([3]; Case-C, month 2): 2.9 kg
Changes in Body Weight during Administration of Beraprost Sodium ([3]; Case-C, month 3): 2.9 kg
Changes in Body Weight during Administration of Beraprost Sodium ([3]; Case-C, month 4): 2.9 kg
Changes in Body Weight during Administration of Beraprost Sodium ([3]; Case-C, month 5): 3.0 kg
Changes in Body Weight during Administration of Beraprost Sodium ([3]; Case-C, month 6): 3.0 kg
Changes in Body Weight during Administration of Beraprost Sodium ([3]; Case-D, age 17, month −1 (before administration)): 4.5 kg
body weight ([3]; Case-D, after one month): increased
Changes in Body Weight during Administration of Beraprost Sodium ([3]; Case-D, month 0): 4.5 kg
Changes in Body Weight during Administration of Beraprost Sodium ([3]; Case-D, month 1): 4.5 kg
Changes in Body Weight during Administration of Beraprost Sodium ([3]; Case-D, month 2): 4.9 kg
Changes in Body Weight during Administration of Beraprost Sodium ([3]; Case-D, month 3): 4.9 kg
Changes in Body Weight during Administration of Beraprost Sodium ([3]; Case-D, month 4): 4.9 kg
Changes in Body Weight during Administration of Beraprost Sodium ([3]; Case-D, month 5): 4.9 kg
Changes in Body Weight during Administration of Beraprost Sodium ([3]; Case-E, age 14, combination therapy, month 0): 3.5 kg
Changes in Body Weight during Administration of Beraprost Sodium ([3]; Case-E, combination therapy, month 1): 3.8 kg
Changes in Body Weight during Administration of Beraprost Sodium ([3]; Case-E, combination therapy, month 2): 3.7 kg
Changes in Body Weight during Administration of Beraprost Sodium ([3]; Case-E, combination therapy, month 3): 3.6 kg
Changes in Body Weight during Administration of Beraprost Sodium ([3]; Case-E, combination therapy, month 4): 3.7 kg
Changes in Body Weight during Administration of Beraprost Sodium ([3]; Case-E, combination therapy, month 5): 3.7 kg
Changes in Body Weight during Administration of Beraprost Sodium ([3]; Case-E, combination therapy, month 6): 3.6 kg
Changes in Body Weight during Administration of Beraprost Sodium ([3]; Case-F, age 11, combination therapy, month 0): 4.7 kg
Changes in Body Weight during Administration of Beraprost Sodium ([3]; Case-F, combination therapy, month 1): 5.0 kg
Changes in Body Weight during Administration of Beraprost Sodium ([3]; Case-F, combination therapy, month 2): 5.0 kg
Changes in Body Weight during Administration of Beraprost Sodium ([3]; Case-F, combination therapy, month 3): 5.5 kg
Changes in Body Weight during Administration of Beraprost Sodium ([3]; Case-F, combination therapy, month 4): 5.5 kg
Changes in Body Weight during Administration of Beraprost Sodium ([3]; Case-F, combination therapy, month 5): 5.7 kg
Changes in Body Weight during Administration of Beraprost Sodium ([3]; Case-F, combination therapy, month 6): 5.8 kg
body weight ([3]; Case-G, 40 μg/head/BID, Day 14): 3.83 kg
body weight ([3]; Case-G, 40 μg/head/BID, Day 56): 3.95 kg
body weight ([3]; Case-G, before the administration (baseline)): 3.2 kg
onset of glomerulonephritis (index: urinary excretion of albumin) [4]: can be inhibited
